From patent US11130741B2 (Bioimics AB, priority 2016, dated 2021)
In brackets after ≈: the same amount, converted by molar mass. Read-outs that look alike come from different tables or passages of the source.

Key:
[1] = system: Staphylococcus aureus (ATCC25923); assay: MIC, broth microdilution (CLSI), Staphylococcus aureus ATCC25923; settings: ATCC25923, read-out: S. aureus ("Clinical") MIC
[2] = system: K. pneumoniae ATCC 43816; assay: MIC, K. pneumoniae ATCC 43816; assay type: cell-based; settings: Klebsiella pneumoniae, ATCC43816
[3] = system: N. gonorrhoeae 612501; assay: MIC, N. gonorrhoeae 612501; assay type: cell-based; settings: Neisseria gonorrhoeae
[4] = system: E. coli JW5503; assay: MIC, E. coli JW5503; assay type: cell-based; settings: Escherichia coli, JW5503, read-out: MIC E. coli JW5503
[5] = system: Staphylococcus aureus subsp. aureus (ATCC29213); assay: MIC, broth microdilution (CLSI), Staphylococcus aureus subsp. aureus ATCC29213; assay type: cell-based
[6] = system: Enterococcus faecalis (ATCC29212); assay: MIC, broth microdilution (CLSI), Enterococcus faecalis ATCC29212; assay type: cell-based; settings: read-out: MIC E. faecalis ATCC 29212
[7] = system: S. aureus ATCC 29213; assay: MIC, S. aureus ATCC 29213 + 50% HS; assay type: cell-based; settings: Staphylococcus aureus, ATCC29213
[8] = system: S. aureus MRSA ATCC 33591; assay: MIC, S. aureus MRSA ATCC 33591; assay type: cell-based; settings: Staphylococcus aureus; read-out: MIC S. aureus MRSA ATCC 33591
[9] = system: Escherichia coli (ATCC25922); assay: MIC, broth microdilution (CLSI), Escherichia coli ATCC25922
[10] = system: Pseudomonas aeruginosa (ATCC27853); assay: microbe, parasite or virus in culture; assay type: cell-based; settings: read-out: MIC P. aeruginosa ATCC 27853
[11] = system: S. pneumoniae ATCC 49619; assay: MIC, S. pneumoniae ATCC 49619; assay type: cell-based; settings: Streptococcus pneumoniae, ATCC49619
[12] = system: E. coli RNase P RNA, M1 RNA; assay: Inhibition of bacterial RNase P activity, IC50 determination (cleavage of pATSerUG by M1 RNA); assay type: biochemical; settings: NI = No inhibition
[13] = system: H. influenzae ATCC 49247; assay: MIC, H. influenzae ATCC 49247; assay type: cell-based; settings: Haemophilus influenzae, ATCC49247
[14] = system: E. faecium ATCC 700221; assay: MIC, E. faecium ATCC 700221; assay type: cell-based; settings: Enterococcus faecium, ATCC700221; read-out: MIC E. faecium ATCC 700221
[15] = system: P. aeruginosa NTUH-974 (MDR); assay: MIC, P. aeruginosa NTUH-974 (MDR); assay type: cell-based; settings: Pseudomonas aeruginosa, read-out: MIC P. aeruginosa NTUH-974 (MDR)
[16] = system: A. baumannii ATCC 17978; assay: MIC, A. baumannii ATCC 17978; assay type: cell-based; settings: Acinetobacter baumannii, ATCC17978
[17] = ATCC29213, Table 15, read-out: S. aureus ("wound") (MIC)
[18] = ATCC29213, Table 16, read-out: MIC S. aureus ATCC 29213
[19] = ATCC25922, read-out: E. coli MIC, Table 15, NI = No inhibition
[20] = ATCC25922, read-out: MIC E. coli ATCC 25922
[21] = ATCC25922, read-out: MIC E. coli ATCC 25922, Table 16

Row | Structure (SMILES) | MIC [1] [µg/mL] | MIC [2] [µg/mL] | MIC [3] [µg/mL] | MIC [4] [µg/mL] | MIC [5, 17] [µg/mL] | MIC [5, 18] [µg/mL] | MIC [6] [µg/mL] | MIC [7] [µg/mL] | MIC [8] [µg/mL] | MIC [9, 19] [µg/mL] | MIC [9, 20] [µg/mL] | MIC [10] [µg/mL] | MIC [11] [µg/mL] | IC50 [12] [µM] | MIC [13] [µg/mL] | MIC [14] [µg/mL] | MIC [15] [µg/mL] | MIC [16] [µg/mL] | MIC [9, 21] [µg/mL]
1 | O=C(/C=C/c1ccc(F)cc1)Nc1cc(C(F)(F)F)cc2c1Nc1ccccc1S2 [compound 92, E-3-(4-fluorophenyl)-N-(3-(trifluoromethyl)-10H-phenothiazin-1-yl)acrylamide] | 1 (≈ 2.32 µM) | > 128 | 0.25 (≈ 0.581 µM) | > 128 | 1 (≈ 2.32 µM) | 0.5 (≈ 1.16 µM) | 2 (≈ 4.65 µM) | 128 | 2 (≈ 4.65 µM) | > 100 | > 128 | > 128 | 8 (≈ 18.6 µM) | > 100 | > 128 | 0.5 (≈ 1.16 µM) | > 128 | > 128 | –
2 | NCC(O)CNC(=O)c1cc2c(c([N+](=O)[O-])c1)Nc1ccccc1S2 (centres unmarked) [compound 94, N-(3-amino-2-hydroxypropyl)-1-nitro-10H-phenothiazine-3-carboxamide] | 64 (≈ 178 µM) | – | – | – | 94 (≈ 261 µM) | – | – | – | – | > 100 | – | – | – | 202 | – | – | – | – | –
3 | NC1CCCC(C(=O)Nc2cc(C(F)(F)F)cc3c2Nc2ccccc2S3)C1 (centres unmarked) [compound 105, 3-Amino-N-(3-(trifluoromethyl)-10H-phenothiazin-1-yl)cyclohexanecarboxamide] | 26 (≈ 63.8 µM) | – | – | – | 32 (≈ 78.5 µM) | – | – | – | – | 52 (≈ 128 µM) | – | – | – | 15 | – | – | – | – | –
4 | CN(C)CCCN1c2ccccc2Sc2cc(-c3cc4ccccc4[nH]3)ccc21 [compound 111, 3-(3-(1H-Indol-2-yl)-10H-phenothiazin-10-yl)-N,N-dimethylpropan-1-amine] | 3 (≈ 7.51 µM) | > 128 | 2 (≈ 5.01 µM) | 4 (≈ 10 µM) | 3 (≈ 7.51 µM) | 2 (≈ 5.01 µM) | 4 (≈ 10 µM) | 128 | 4 (≈ 10 µM) | > 100 | – | > 128 | 8 (≈ 20 µM) | ~20 | 16 (≈ 40 µM) | 2 (≈ 5.01 µM) | > 128 | 64 (≈ 160 µM) | 64 (≈ 160 µM)
5 | CN(C)CCCN1c2ccccc2Sc2cc(-c3cc4cc(C#N)ccc4[nH]3)ccc21 [compound 123, 2-(10-(3-(dimethylamino)propyl)-10H-phenothiazin-3-yl)-1H-indole-5-carbonitrile] | 2 (≈ 4.71 µM) | > 128 | 1 (≈ 2.36 µM) | 4 (≈ 9.42 µM) | 2 (≈ 4.71 µM) | 2 (≈ 4.71 µM) | 2 (≈ 4.71 µM) | 64 | 8 (≈ 18.8 µM) | > 100 | > 128 | > 128 | 8 (≈ 18.8 µM) | > 100 | 16 (≈ 37.7 µM) | 2 (≈ 4.71 µM) | > 128 | 64 (≈ 151 µM) | –
6 | NC1CCCC(CNc2cc(C(F)(F)F)cc3c2Nc2ccccc2S3)C1 (centres unmarked) [compound 133, N-((3-Aminocyclohexyl)methyl)-3-(trifluoromethyl)-10H-phenothiazin-1-amine] | 3 (≈ 7.62 µM) | 32 (≈ 81.3 µM) | 2 (≈ 5.08 µM) | 8 (≈ 20.3 µM) | 81 (≈ 206 µM) | 4 (≈ 10.2 µM) | 8 (≈ 20.3 µM) | 128 | 4 (≈ 10.2 µM) | 13 (≈ 33 µM) | – | 128 (≈ 325 µM) | 32 (≈ 81.3 µM) | 19 | 16 (≈ 40.7 µM) | 4 (≈ 10.2 µM) | 128 (≈ 325 µM) | 16 (≈ 40.7 µM) | 32 (≈ 81.3 µM)
7 | CN(C)CCCN1c2ccc(-c3cc4ccccc4[nH]3)cc2Sc2cccnc21 [compound 135, 3-(7-(1H-Indol-2-yl)-10H-benzo[b]pyrido[2,3-e][1,4]thiazin-10-yl)-N,N-dimethylpropan-1-amine] | 6 (≈ 15 µM) | – | – | – | 8 (≈ 20 µM) | – | – | – | – | > 100 | – | – | – | 24 to 32 | – | – | – | – | –
8 | CN(C)CCCN1c2ccccc2Sc2cc(-c3cc4ccccc4n3CCN)ccc21 [compound 136, 3-(3-(1-(2-aminoethyl)-1H-indol-2-yl)-10H-phenothiazin-10-yl)-N,N-dimethylpropan-1-amine] | 7 (≈ 15.8 µM) | – | – | – | 16 (≈ 36.1 µM) | – | – | – | – | 7 (≈ 15.8 µM) | – | – | – | 37 | – | – | – | – | –
9 | FC(F)(F)c1cc(NC2CCNCC2)c2c(c1)Sc1ccccc1N2 [compound 141, N-(piperidin-4-yl)-3-(trifluoromethyl)-10H-phenothiazin-1-amine] | 3 (≈ 8.21 µM) | – | – | – | 6 (≈ 16.4 µM) | – | – | – | – | 12 (≈ 32.8 µM) | – | – | – | 12 | – | – | – | – | –
